# Assay results published in US20260226027A1, “DEUTERATED COMPOUNDS” (Neurocrine Biosciences, Inc., priority 2023, published 2026).
# Legend:
# human hepatocytes = assay: Metabolite profile in cryopreserved human hepatocytes; type: in vitro ADME; conditions: 10 μM Compound 1, 120 min
# Procedure: (§1) Metabolite profile and metabolite identification of Compound 1 were studied in cryopreserved SD-rat, beagle dog and human hepatocytes. The incubations were conducted using 10 μM initial concentrations of test substance and sampling at 0 min, 60 min, and 120 min. The samples were analysed using UPLC/Q-TOF-MS. Incubation material and procedures are provided Table 1. The samples were thawed at room temperature (RT), centrifuged (10 min at 13000×g (Heraeus Pico 17 centrifuge), and the supernatants were pipetted to glass vials to wait for analysis. Analysis was performed using liquid chromatography-mass spectrometry (LC-MS) according to the parameters described in Table 2. The samples were thawed at room temperature (RT), centrifuged (10 min at 13000×g (Heraeus Pico 17 centrifuge), and the supernatants were pipetted to glass vials to wait for analysis.
# SD-rat hepatocytes = assay: Metabolite profile in cryopreserved SD-rat hepatocytes; type: in vitro ADME; conditions: 10 μM Compound 1, 120 min
# Procedure: as §1
# [1] = Metabolite identification in cross-subject human plasma pool; type: in vivo; conditions: day 7, 0-24 h pool, multiple daily oral 15 mg Compound 1, n=8
# Procedure: The in vivo metabolism of Compound 1 was investigated in studies using rat, dog, rabbit, and human plasma and human urine samples from toxicology studies, an embryofetal development study, and a human clinical study.
# Human plasma and urine samples originated from a human clinical study with subjects aged 65 years or older, dosed with 15 mg daily and achieving steady-state before day 7. Samples were stored at −75° C. or below from collection until analysis.
# Human plasma samples from each Compound 1-dosed subject (15 mg; n=8) collected at day 7 at 0.25 h, 0.5 h, 1 h, 1.5 h, 2 h, 3 h, 4 h, 6 h, 8 h, 10 h, 12 h and 24 h after multiple daily oral administration were pooled for analysis. Plasma from placebo-dosed subjects (n=2) taken at the same time-points and pre-dose plasma collected on day 1 from Compound 1-dosed subjects were used as control for metabolite identification.
# Time-normalized pooled plasma samples (day 7; 0-24 h) were prepared for each human subject treated with Compound 1 (15 mg; n=8) or with placebo (n=2) (see e.g., Hamilton et al, Clin. Pharmacol. Ther. 1983, 29(3):408-13). Composite time-normalized pooled plasma samples for human subjects dosed with Compound 1 or placebo were then prepared by combining an equal volume from the pooled sample prepared for each subject. A composite control plasma sample was prepared by combining an equal volume of pre-dose plasma from human subjects treated with Compound 1 (n=8).
# Aliquots (100 μL) of the pooled plasma samples prepared for metabolite identification were treated with ice-cold acetonitrile (500 μL), mixed and centrifuged (2000 g; 4° C.; 10 min). […]
# Samples were analysed by LC-MS, utilising a Vion Q-TOF mass spectrometer (Waters), Acquity I-class LC pumps, column heater, sample manager and photodiode array detector (Waters). […] Metabolite abundance was calculated as a percentage of total drug-related material in a given sample; the MS peak areas were collated and summed, and the abundance of each metabolite calculated as a percentage of the total in each sample. […]
# [2] = Metabolite identification in cross-subject human urine pool; type: in vivo; conditions: day 7, 0-24 h pool, multiple daily oral 15 mg Compound 1, n=8
# Procedure: Human urine samples from the Compound 1-dosed subjects (15 mg; n=8) collected at day 7 between 0-4 h, 4 h-8 h, 8 h-12 h and 12 h-24 h after multiple daily oral administration were also pooled for analysis. Urine from placebo-dosed subjects (n=2) collected at day 7 over the same time periods was used as control for metabolite identification.
# A composite urine sample (day 7; 0-24 h) was prepared for each human subject treated with Compound 1 (15 mg; n=8) or with placebo (n=2) by combining proportional amounts of the sample collected over each time period. Composite cross-subject urine samples for human subjects dosed with Compound 1 or placebo were then prepared by combining proportional amounts of pooled urine from each subject. All urine pools were mixed and centrifuged (2000 g; 4° C.; 10 min) prior to analysis.
# Samples were analysed by LC-MS, utilising a Vion Q-TOF mass spectrometer (Waters), Acquity I-class LC pumps, column heater, sample manager and photodiode array detector (Waters). The mass spectrometer was set to operate in positive ion mode and a number of experiments were performed to enable the acquisition of full scan and product ion data. […] Metabolite abundance was calculated as a percentage of total drug-related material in a given sample; the MS peak areas were collated and summed, and the abundance of each metabolite calculated as a percentage of the total in each sample. Based on apparent abundance, metabolites were categorized as ‘major’ if present at 10% or more of the total drug-related material, ‘minor’ if between 1 and <10% and ‘trace’ if <1%.
# beagle dog hepatocytes = assay: Metabolite profile in cryopreserved beagle dog hepatocytes; type: in vitro ADME; conditions: 10 μM Compound 1, 120 min
# Procedure: as §1
# [3] = Control incubation without cells; type: in vitro ADME
# Procedure: as §1
# [4] = test system: SD-rat, beagle dog and human hepatocytes; assay: Hepatocyte incubation, remaining abundance in all species; type: in vitro ADME; conditions: 10 μM
# Procedure: as §1
compound,measurement,setting,value
CCOC(=O)N1CC[C@]2(C1)C[C@@H](N1CCC(c3ccn[nH]3)CC1)C2 [Compound M2],"Metabolite profile, Human 120 min, %",human hepatocytes,0.3%
same,"Metabolite profile, Rat 120 min, %",SD-rat hepatocytes,0.1%
same,"% Abundance in Sample, Plasma (% of total drug-related material)",[1],2.3%
same,"% Abundance in Sample, Urine (% of total drug-related material)",[2],3.3%
"CCOC(=O)N1CC[C@]2(C1)C[C@@H](N1CCC(c3ccnn3C)CC1)C2 [Compound 1, cis ethyl 2-[4-(1-methyl-1H-pyrazol-5-yl)piperidin-1-yl]-6-azaspiro[3.4]octane-6-carboxylate]","Metabolite profile, Human 120 min, %",human hepatocytes,84.0%
same,"Metabolite profile, Rat 120 min, %",SD-rat hepatocytes,93.7%
same,"Metabolite profile, Dog 120 min, %",beagle dog hepatocytes,94.9%
same,"Metabolite profile, No cells 120 min, %","[3]; incubation without cells, 10 μM, 120 min",100%
same,disappearance in the control incubation without cells,[3]; without cells,Practically no disappearance
same,remaining abundances after 120 min incubation period,[4],79-93%
same,"% Abundance in Sample, Plasma (% of total drug-related material)",[1],82.0%
same,"% Abundance in Sample, Urine (% of total drug-related material)",[2],63.3%
Cn1nccc1C1CCN([C@H]2C[C@]3(CCNC3)C2)CC1 [Compound M4],"Metabolite profile, Human 120 min, %",human hepatocytes,13.8%
same,"Metabolite profile, Rat 120 min, %",SD-rat hepatocytes,4.9%
same,"Metabolite profile, Dog 120 min, %",beagle dog hepatocytes,4.6%
same,"% Abundance in Sample, Plasma (% of total drug-related material)",[1],11.4%
same,"% Abundance in Sample, Urine (% of total drug-related material)",[2],26.4%
